Measurements as given in a melting point compilation (Tetko et al.; mined from patent text by program, amines drawn as free bases though some values may be those of a salt).

| melting point [°C] | Structure (SMILES) |
| --- | --- |
| 202 to 204 | O=C1CN(CC2CCN(c3ncc4ncnc(Nc5ccc(F)c(Cl)c5)c4n3)CC2)CCO1 |
| 173 to 174 | Cc1cc(N2N=CCNC2=O)cc(Cl)c1Sc1nccn1C |
| 233 to 235 | CC1(C)CCC(C)(C)c2cc(-c3ccc(-c4ccccc4)c(-c4ccc(C(=O)O)cc4)c3)ccc21 |
| 167 | COc1ccc(S(=O)(=O)N2C(=O)C(c3ccccc3OC)(N3c4ccccc4C[C@H]3C(=O)N(C)C)c3cc(Cl)ccc32)c(OC)c1 (stereo partly drawn) |
| 105 to 107 | Nc1c(F)cc(-c2ccccc2)cc1Cl |
| 120 | COC(=O)C1=C(C)NC(C)=C(C(=O)OCCCCCCCCCCO)[C@H]1c1cccc2nonc12 |
| 147 to 149 | CC(=CC(=O)O)c1cccc([N+](=O)[O-])c1 |
| 182 to 183 | Cc1c(C(=O)Nc2ccc(Oc3ccccc3)c(C#N)c2)cnn1-c1ccc(F)cc1 |
| 174 to 175 | CC(C)(C)C(NC(=O)Cc1ccc(Cl)cc1)NC(=NC#N)Nc1cccnc1Cl (stereo not drawn) |
| 169 | COc1ccc(S(=O)(=O)N(c2ccc(Cl)cc2Cc2c(F)cccc2F)C(C)CO)cc1OC (stereo not drawn) |
| 144 to 146 | COc1ccc(Oc2cc3nc(-c4ccc(Cl)cc4Cl)oc3cc2[N+](=O)[O-])cc1 |
| 152 to 153 | CC(C)OCCCNC(=O)c1n[nH]cc1NC(=O)c1ccccn1 |
| 220 to 224 | Cc1c(CC[Si](Cl)(Cl)Cl)c(CC[Si](Cl)(Cl)Cl)c(C)c(CC[Si](Cl)(Cl)Cl)c1CC[Si](Cl)(Cl)Cl |
| 226 to 228 | CCCc1nc2c(N)nc3cc(Br)ccc3c2n1NC(C)C |
| 143 | C#CC1CCC(c2ccc(C3CCC(CCC)CC3)cc2)CC1 (stereo not drawn) |
| 259 to 261 | COc1ccc2c(c1)Cc1ccc(C(=O)O)cc1O2 |
| 265 to 270 | N#Cc1c(N2CCCSCC2)cc[nH]c1=S |
| 240 to 250 | CN(C)c1cc(N)c(C(=O)O)cc1[N+](=O)[O-] |
| 82 to 84 | CCCNCC1Cc2ccc(C3=NNC(=O)CC3)cc2C1 (stereo not drawn) |
| 152 to 157 | CN(C(=O)c1cc(C(F)(F)F)cc(C(F)(F)F)c1)C(CCCC(=O)O)Cc1c[nH]c2ccccc12 (stereo not drawn) |
| 95 to 96 | C=CCOc1ccc(-c2nc3ccccc3o2)cc1 |
| 73 to 75 | COc1ccc(-c2cccc(C3=CCC(OC(Cc4ccccc4)C(=O)O)(c4c(Cc5ccccc5)oc5ccccc45)C=C3)c2)cc1 (stereo not drawn) |
| 173 to 175 | O=C(Nc1ccccc1)OC1CCN(C(=O)c2ccc(F)cc2)C1 (stereo not drawn) |
| 105 to 107 | CCCCCCC(=N)NC(=S)Nc1cccc(C(F)(F)F)c1 |

| melting point [°C] | Structure (SMILES) |
| --- | --- |
| 165 to 168 | CC12CCC(OC(=O)c3ccc(N)cc3)CC1=CCC1C2CCC2(C)C(=NO)CCC12 (stereo not drawn) |
| 103 to 105 | CCC(N)=C(C(C)=O)C(=O)N(CCN(C)C)c1ccccc1 |
| 106 to 108 | O=C(CCl)Nc1cccc(C(=O)Cl)c1 |
| 122 to 123 | CC(=O)N(C)N(C(=O)OC(C)(C)C)c1ccc(CO)cc1 |
| 112 to 114 | O=C(O)COc1ccc(SCc2cc(-c3ccc(Cl)cc3)on2)c2c1CCC2 |
| 207 | CC(C)N(C)c1cc2c(cc1Cl)NC(=O)CC(c1cccc(-n3nncc3CO)c1)=N2 |
| 163 to 165 | O=S(=O)(c1c[nH]c(Br)c1-c1ccc(Cl)cc1)C(F)(F)F |
| 197 to 198 | Cc1c(C(=O)O)ccc(S(C)(=O)=O)c1N |
| 118 to 120 | CCOC(=O)COc1ccc(-c2nn(-c3ccccc3)c3ncccc23)cc1 |
| 164 to 170 | N#Cc1ccc(-c2cn(-c3ccc(C#N)cc3)c(SCc3ccccn3)n2)cc1 |
| 119 to 122 | Nc1ccc(Sc2ccccc2)nc1N |
| 78 to 85 | CC(C)(C)c1ccc(NC(=O)OCC2(COC(=O)Nc3ccc(C(C)(C)C)cc3)CSc3ccccc3C2=O)cc1 |
| 101 to 102 | COc1ccc(-c2c(Cl)c(CNC(=O)Cn3cncn3)nc3sc4c(c23)CCN(Cc2ccccc2)C4)cc1OC |
| 86 to 90 | CCCCc1oc2ccc(N)cc2c1C(=O)c1ccc(OCCCO)cc1 |
| 144 to 146 | O=Cc1cccc(OCc2ccco2)c1 |
| 164 to 166 | COCc1ccccc1-c1ccc(C(=O)O)cc1 |
| 126 | O=S(=O)(N[C@H](CO)[C@@H](c1cc(F)cc(F)c1)C(F)(F)F)c1ccc(Cl)s1 |
| 231 to 232 | NS(=O)(=O)c1ccc(-c2[nH]c3ccccc3c2-c2ccccc2)cc1 |
| 63.5 to 66 | CCCc1ccccc1OCCCOc1cccc(OC(=CC(=O)OC)C(=O)OC)c1CC |
| 85 to 87 | Cc1cc([N+](=O)[O-])c(C)cc1SCc1cccc(C(F)(F)F)c1 |
| 128 to 130 | CCCC1CCC(C)C(CCC2CC(O)CC(=O)O2)C1COC(=O)C(C)(C)CC (stereo not drawn) |
| > 260 | CC(=O)Nc1nc(NC(C)=O)nc(-c2ccc(-c3ccccc3)cc2)n1 |
| 105 to 106 | COc1ccc(N2CCN(CCC3OCCc4c(Br)cccc43)CC2)cc1 (stereo not drawn) |
| 197 | N#Cc1c(C(F)(F)F)cc(-c2ccc(C(F)(F)F)cc2)[nH]c1=O |

| melting point [°C] | Structure (SMILES) |
| --- | --- |
| 74 to 76 | CCCCCCCCNC(=O)N(CCCCCSc1nc(-c2ccccc2)c(-c2ccccc2)[nH]1)c1ccccc1 |
| > 260 | Nc1nc(N)nc(-c2cncc(Br)c2)n1 |
| 203 to 205 | CC(C(=O)O)C1CCCc2c1n(Cc1ccc(Cl)cc1)c1ccc(F)cc21 (stereo not drawn) |
| 142 to 145 | O=C(O)/C=C/C=C(c1cccc(Cl)c1)c1cccc(Cl)c1 |
| 114 to 115 | Clc1ncnc2c1CCOc1ccccc1-2 |
| 80 to 80.5 | COc1ccc2c(c1)CCC1C2CCC2(C)C1CCC2N(C)CCC(C)C (stereo not drawn) |
| 247 | O=C(O)c1cncc(-c2ccc3c(C(=O)NCC45CC6CC(CC(C6)C4)C5)c(Cl)ccc3n2)c1 |
| 283 to 285 | COc1ccc(N2CCOCC2)c2sc(-c3nc4ccccc4n3C)nc12 |
| 32 to 33 | CCCCCCCCCCCCCCn1ccc(C(=O)OCC)c1 |
| 202 to 204 | O=C(Nc1ccc(Oc2cccc3c2CCC3=O)nc1)c1ccc(Cl)c(Cl)c1 |
| 120 to 122 | Cc1nc(-c2c(F)cccc2Cl)nn1-c1ccc(CO)cc1 |
| 342 to 345 | O=c1[nH]c2ncc(-c3ccc(-c4nnc[nH]4)cc3)nc2n1CC1CCOCC1 |
| 152 to 154 | OCC(=C(c1ccc(F)cc1)c1ccc(F)cc1)n1cnnn1 |
| 195 to 196 | Cc1nn(-c2ccc(C(F)(F)F)cn2)cc1COc1ccc(CCC(=O)O)cc1 |
| 156 to 158 | O=C1NC(=O)C(S(=O)(=O)c2ccc(Br)cc2)S1 (stereo not drawn) |
| 80 to 81 | COc1ccc(-c2nc(C)cc(Cl)n2)cc1 |
| 161 | Brc1cn2c(Br)cnc2c(Br)n1 |
| > 300 | O=C(O)c1ccc(-c2c[nH]c(=O)cn2)cc1 |
| 115 | N#Cc1ccc(OCCc2coc(-c3ccccc3)n2)cc1 |
| 145 to 148 | CNc1cc(S(=O)(=O)c2ccccc2)cc(Br)n1 |
| 243 to 245 | Cn1c(Cl)c(C(=O)O)c2ccc(Cl)cc21 |
| 221 | Oc1ccc(C2(c3cccc(O)c3)c3ccccc3-c3ccccc32)cc1 |
| 194 to 195 | CC(C)CC(S)C(=O)NC(Cc1ccc(Br)nc1)C(=O)NC(Cc1ccc(-c2cccs2)nc1)C(=O)O (stereo not drawn) |
| 110 to 115 | CC1(C)CCC(C)(C)c2cc(C(O)COc3ccc(CO)c(O)c3)ccc21 (stereo not drawn) |

| melting point [°C] | Structure (SMILES) |
| --- | --- |
| 168 | OC(c1ccccc1)(c1ccccc1Cl)c1nccn1Cc1ccccc1 (stereo not drawn) |
| > 250 | O=Cc1c[nH]c2c1ccc1c3cc(F)ccc3[nH]c12 |
| 206 to 209 | CC1c2cnc3ccc(O[Si](C)(C)C(C)(C)C)cc3c2C(CO[Si](C)(C)C(C)(C)C)C(O)C1O (stereo not drawn) |
| 244 to 245 | Cc1cc(C(=O)N2CCC3(CC2)CSC2=C(O3)c3ccccc3C(=O)C2=O)n(C)n1 |
| 166 to 167 | CC(C)(C)c1cc(CCc2ccccc2NC(=O)NCCN2CCOCC2)cc(C(C)(C)C)c1O |
| 132 | CC#CCOc1cc(Oc2ccc([N+](=O)[O-])cc2F)ncn1 |
| 125 to 127 | CCCc1nc2c(N)nc(C)c(C)c2n1CCCO/N=C(\C)c1ccccc1 |
| 188 to 190 | CN1CCCC1=Cc1ccc([N+](=O)[O-])cc1[N+](=O)[O-] |
| 191 to 193 | Cn1c(C(F)(F)F)cc(=O)n(-c2cc(OCCOCCCl)c(Cl)cc2F)c1=O |
| 116 to 117 | Cc1nn(-c2ccccn2)cc1CO |
| 116 to 117 | COC(=O)c1c(NC(C)=O)sc2c1CCC(c1ccccc1)C2 (stereo not drawn) |
| 61 to 63 | CC(=O)N(C(=O)N(C)C)c1nnc(C(F)(F)F)s1 |
| 120 to 121 | C#Cc1ccc(Oc2ccc(C(=O)C(=O)c3cccc(C(=O)C(=O)c4ccc(Oc5ccc(C#C)cc5)cc4)c3)cc2)cc1 |
| 107 to 108 | Cc1cc(SC(C)C)c(NC(=O)CCCCCCCSc2nc3ccccc3s2)c(SC(C)C)n1 |
| 167 to 169 | CC(C)(CCCOc1ccc(CCC(=O)c2ccc(-c3ccc(C(F)(F)F)cc3)s2)c(Cl)c1Cl)C(=O)O |
| 106 to 107 | OCCNc1nc(NCc2ccccc2)c2ncc(Cl)cc2n1 |
| 157 to 159 | CC(C)n1cc(-c2ccc(Oc3ccccc3)c(CO)c2)c2c(Cl)ncnc21 |
| 242 | O=C(O)CC1(O)CCC(N2CCN(CCCNc3ccncc3)CC2)CC1 (stereo not drawn) |
| 153 | Cc1ccc(S(=O)(=O)N2[C@H](CCCc3nnnn3C)CC[C@@H]2c2ccc(F)cc2)cc1 (racemic) |
| 105 to 107 | O=C(O)CCC(=O)c1cccc(Cl)c1 |
| > 320 | O=C(O)C(=O)Nc1ccc(Oc2ccc(NC(=O)C(=O)O)cc2)cc1 |

| Structure (SMILES) | melting point [°C] |
| --- | --- |
| N#Cc1ccc(N2C[C@H](O)C[C@@H]2CO)c2ccccc12 | 146 to 147 |
| C[C@@H]1N(C)C(C)(C)CO[C@@]1(O)c1cccc(Cl)c1 | 128 to 129 |
| CC(C)(NCCc1ccccc1)C(O)c1ccccc1 (stereo not drawn) | 103 to 104 |
| C[C@H]1[C@@H](O)C(F)(F)C(=O)N1c1ccc(C#N)c(C(F)(F)F)c1 | 128 to 131 |
| CCc1cc2c(s1)-n1nc(C(N)=O)nc1C(OC)N=C2c1ccccc1Cl (stereo not drawn) | 200 to 201 |
